Columns and labels:
Caco2 cells [1] = assay: MTT assay cell viability, Caco2 cells; assay type: cell-based; conditions: Homo sapiens, Caco-2; Caco2 cells, 48 hr treatment
Experimental: (§1) Two cell lines were used in this study, Caco2 cells and HT-29 cells. Both of them are colorectal cancer cells. Caco2 cells and HT-29 cells were maintained in DMEM (or RPMI) supplemented with 20% or 10% fetal bovine serum (FBS; GIBCO), pH 7.4 at 37° C. with continuous circulation of 5% CO2 incubator. The medium was changed every 2 days and the cells were trypsinized using trypsin/EDTA when reaching 80%-90% confluence.
(§2) In this example, the effects of HCD, PG, and 5-FU on the viability of Caco2 cells and HT-29 cells were examined. The MTT assay was employed for this purpose. The MTT (3-(4-,5-dimethylthiazol-2-yl)-2,5-diphenyltetrazolium bromide) assay is a common colorimetric method in the field for cell viability analysis. MTT (yellow tetrazolium salt) is reduced to a purple formazan by living cells and detection to the purple formazan can be calculated as the cell viability.
(§3) Briefly, cells (Caco2 or HT-29) were seeded in 96-well plate (7×10^3 cell per well) and incubated overnight (37° C., 5% CO2).
(§4) On the other hand, in the pretreatment analysis, cells (Caco2 or HT-29) were seeded in 96-well plate (7×10^3 cell per well) and incubated overnight (37° C., 5% CO2). In according to the treatments listed in the Table 1, Cells were pre-treated by HCD or PG for 6, 12, 24, 36, or 48 hr and then were treated by 5-FU for additional 24 hr.

HT-29 cells [2] = assay: MTT assay cell viability, HT-29 cells; assay type: cell-based; conditions: Homo sapiens; HT-29 cells, 36 hr treatment
Experimental: as §1, §2, §3, §4

Caco2 cells [3] = assay: Cell cycle analysis by flow cytometer (PI staining), Caco2 cells; assay type: cell-based
Experimental: (§5) The results of Example 2 in cell viability hinted the effects of HCD, PG, and 5-FU on arresting cell cycle. In this example, the phase of cell cycle of Caco2 and HT-29 cells after the treatment listed in Table 1 was determined by flow cytometer. Briefly, 7×10^4 cells per well were inoculated in 12-wells plate and incubated overnight at 37° C., 5% CO2. Then, cells were treated according to the treatment listed in Table 1 by indicated time period. After treatment, cells were harvested by trypsin and fixed with 70% ethanol at −20° C. for at least 3 hr. The cells were washed in cold PBS twice and then incubated with 1 mL (v/v) staining solution (20 μg/mL propidium iodide (PI), 0.1% Triton X-100, 0.2 mg/mL Rnase) at 37° C. for 30 minutes. Lastly, cells were analyzed by flow cytometer (Cytomics™ FC500, Backman, Fullerton, Calif., USA). Data from 10,000 cells were collected for each experimental group.

HT-29 cells [4] = assay: Cell cycle analysis by flow cytometer (PI staining), HT-29 cells; assay type: cell-based
Experimental: as §5

[5] = tested on: mouse bearing inflammatory bowel disease (IBD), AOM/DSS induced; assay: Mouse model bearing IBD (AOM/DSS induced), body weight and H&E staining of intestine; assay type: in vivo, C57/BL6 mice
Experimental: The animal experiments were approved by the National Dong-Hwa University Animal Ethics Committee and the experimental protocols were used according to the “Guide for the Care and Use of Laboratory Animals” of National Dong-Hwa University. On day 0, C57/BL6 mice (6-8 weeks old) were weighted and injected (intraperitoneal; i.p.) with 10 mg/kg body weight of azoxymethane (AOM) and then fed with 2% Dextran sodium sulfate solution (DSS solution) via water every day for 7 days. On day 8, the 2% DSS solution was changed to normal water for another 7 days. The cycle of DSS solution and water was repeated and the induction procedure was completed on day 35.
After the establishment of IBD in the experimental mice (on day 35), the mice were injected (i.p.) with 5-FU (15 mg/kg body weight) or HCD (0.64, 1.6, or 6.4 mg/kg body weight) once every three days for additional 30 days. Then, the mice were sacrificed. The colon, spleen, liver, and kidney thereof were immediately removed, observed, and further examined by H&E staining.

SMILES: O=c1[nH]cc(F)c(=O)[nH]1 [5-FU, 5-Fluorouracil]
- IC50 (Caco2 cells [1]): 100 µM
- IC50 (HT-29 cells [2]): 50 µM
- cell cycle arrest at sub-G1 phase vs control (in words) (Caco2 cells [3]; Caco2): increased cell cycle arrest at sub-G1 phase
- G0/G1 (%) (Caco2 cells [3]; Caco2, 0.5 μM, 36 hr): 46.15 ± 1.34 %
- G2/M (%) (Caco2 cells [3]; Caco2, 0.5 μM, 36 hr): 8.65 ± 1.48 %
- S (%) (Caco2 cells [3]; Caco2, 0.5 μM, 36 hr): 20.05 ± 1.91%
- Sub G1 (%) (Caco2 cells [3]; Caco2, 0.5 μM, 36 hr): 21.8 ± 5.09%
- G0/G1 (%) (Caco2 cells [3]; Caco2, 0.5 μM, 48 hr): 46.15 ± 1.34%
- G2/M (%) (Caco2 cells [3]; Caco2, 0.5 μM, 48 hr): 1.5 ± 0.14 %
- S (%) (Caco2 cells [3]; Caco2, 0.5 μM, 48 hr): 13.65 ± 1.34%
- Sub G1 (%) (Caco2 cells [3]; Caco2, 0.5 μM, 48 hr): 20.9 ± 3.25%
- G0/G1 (%) (Caco2 cells [3]; Caco2, 2 μM, 36 hr): 36.65 ± 1.06 %
- G2/M (%) (Caco2 cells [3]; Caco2, 2 μM, 36 hr): 1.85 ± 0.5 %
- S (%) (Caco2 cells [3]; Caco2, 2 μM, 36 hr): 17.1 ± 2.12%
- Sub G1 (%) (Caco2 cells [3]; Caco2, 2 μM, 36 hr): 40.1 ± 1.69 %
- G0/G1 (%) (Caco2 cells [3]; Caco2, 2 μM, 48 hr): 35.35 ± 2.47 %
- G2/M (%) (Caco2 cells [3]; Caco2, 2 μM, 48 hr): 3.55 ± 3.89 %
- S (%) (Caco2 cells [3]; Caco2, 2 μM, 48 hr): 18.05 ± 10.11%
- Sub G1 (%) (Caco2 cells [3]; Caco2, 2 μM, 48 hr): 37.55 ± 14.64 %
- G0/G1 (%) (Caco2 cells [3]; Caco2, 5 μM, 36 hr): 39.1 ± 5.66 %
- G2/M (%) (Caco2 cells [3]; Caco2, 5 μM, 36 hr): 1.05 ± 0.21%
- S (%) (Caco2 cells [3]; Caco2, 5 μM, 36 hr): 12.5 ± 0.71%
- Sub G1 (%) (Caco2 cells [3]; Caco2, 5 μM, 36 hr): 42.6 ± 5.37 %
- G0/G1 (%) (Caco2 cells [3]; Caco2, 5 μM, 48 hr): 36.7 ± 8.06 %
- G2/M (%) (Caco2 cells [3]; Caco2, 5 μM, 48 hr): 2.7 ± 2.95 %
- S (%) (Caco2 cells [3]; Caco2, 5 μM, 48 hr): 17.5 ± 10.47%
- Sub G1 (%) (Caco2 cells [3]; Caco2, 5 μM, 48 hr): 38.3 ± 24.47 %
- cell cycle arrest at sub-G1 phase vs control (in words) (HT-29 cells [4]; HT-29): increased cell cycle arrest at sub-G1 phase
- G0/G1 (%) (HT-29 cells [4]; HT-29, 0.5 μM, 24 hr): 40.05 ± 0.35 %
- G2/M (%) (HT-29 cells [4]; HT-29, 0.5 μM, 24 hr): 17.45 ± 3.04%
- S (%) (HT-29 cells [4]; HT-29, 0.5 μM, 24 hr): 28.65 ± 1.20 %
- Sub G1 (%) (HT-29 cells [4]; HT-29, 0.5 μM, 24 hr): 6.75 ± 0.35%
- G0/G1 (%) (HT-29 cells [4]; HT-29, 0.5 μM, 36 hr): 46.15 ± 1.34 %
- G2/M (%) (HT-29 cells [4]; HT-29, 0.5 μM, 36 hr): 8.65 ± 1.48 %
- S (%) (HT-29 cells [4]; HT-29, 0.5 μM, 36 hr): 20.05 ± 1.91%
- Sub G1 (%) (HT-29 cells [4]; HT-29, 0.5 μM, 36 hr): 21.8 ± 5.09%
- G0/G1 (%) (HT-29 cells [4]; HT-29, 2 μM, 24 hr): 50.3 ± 0.85%
- G2/M (%) (HT-29 cells [4]; HT-29, 2 μM, 24 hr): 9.15 ± 0.78 %
- S (%) (HT-29 cells [4]; HT-29, 2 μM, 24 hr): 26.15 ± 1.77 %
- Sub G1 (%) (HT-29 cells [4]; HT-29, 2 μM, 24 hr): 7.75 ± 0.21%
- G0/G1 (%) (HT-29 cells [4]; HT-29, 2 μM, 36 hr): 36.65 ± 1.06 %
- G2/M (%) (HT-29 cells [4]; HT-29, 2 μM, 36 hr): 1.85 ± 0.5 %
- S (%) (HT-29 cells [4]; HT-29, 2 μM, 36 hr): 17.1 ± 2.12%
- Sub G1 (%) (HT-29 cells [4]; HT-29, 2 μM, 36 hr): 40.1 ± 1.69 %
- G0/G1 (%) (HT-29 cells [4]; HT-29, 5 μM, 24 hr): 56.65 ± 6.01%
- G2/M (%) (HT-29 cells [4]; HT-29, 5 μM, 24 hr): 9.4 ± 3.68 %
- S (%) (HT-29 cells [4]; HT-29, 5 μM, 24 hr): 21.45 ± 2.33 %
- Sub G1 (%) (HT-29 cells [4]; HT-29, 5 μM, 24 hr): 6.85 ± 0.64%
- G0/G1 (%) (HT-29 cells [4]; HT-29, 5 μM, 36 hr): 39.1 ± 5.66 %
- G2/M (%) (HT-29 cells [4]; HT-29, 5 μM, 36 hr): 1.05 ± 0.21%
- S (%) (HT-29 cells [4]; HT-29, 5 μM, 36 hr): 12.5 ± 0.71%
- Sub G1 (%) (HT-29 cells [4]; HT-29, 5 μM, 36 hr): 42.6 ± 5.37 %
- intestine villus arrangement (H&E staining) ([5]; 15 mg/kg body weight i.p.): irregular arrangement of villus
- lymph node (H&E staining) ([5]; 15 mg/kg body weight i.p.): enlarged
- body weight ([5]; 15 mg/kg body weight i.p. once every three days, 30 days): initially reduced
